{"source": "paper PMC10412597", "about": "“Small molecule branched-chain ketoacid dehydrogenase kinase (BDK) inhibitors with opposing effects on BDK protein levels” (Nature Communications, 2023)", "key": {"[1]": {"molecular_target": "MYLK (Homo sapiens, UniProt Q15746)", "design": "Invitrogen Lantha screen kinase binding, per cent inhibition of binding", "conditions": "10 µM, binder", "procedure": "(§1) To discover a potent and selective BDK inhibitor, a subset of the Pfizer compound collection was screened. […] Off target activity was assessed in both CEREP and kinase panels (Supplementary Tables 2, 3)."}, "[2]": {"molecular_target": "T1, Dual-specificity tyrosine-(Y)-phosphorylation regulated kinase 2 (DYRK) (Homo sapiens, UniProt Q92630)", "T1 construct": "gene DYRK2", "T1 sequence (Q92630 whole entry)": "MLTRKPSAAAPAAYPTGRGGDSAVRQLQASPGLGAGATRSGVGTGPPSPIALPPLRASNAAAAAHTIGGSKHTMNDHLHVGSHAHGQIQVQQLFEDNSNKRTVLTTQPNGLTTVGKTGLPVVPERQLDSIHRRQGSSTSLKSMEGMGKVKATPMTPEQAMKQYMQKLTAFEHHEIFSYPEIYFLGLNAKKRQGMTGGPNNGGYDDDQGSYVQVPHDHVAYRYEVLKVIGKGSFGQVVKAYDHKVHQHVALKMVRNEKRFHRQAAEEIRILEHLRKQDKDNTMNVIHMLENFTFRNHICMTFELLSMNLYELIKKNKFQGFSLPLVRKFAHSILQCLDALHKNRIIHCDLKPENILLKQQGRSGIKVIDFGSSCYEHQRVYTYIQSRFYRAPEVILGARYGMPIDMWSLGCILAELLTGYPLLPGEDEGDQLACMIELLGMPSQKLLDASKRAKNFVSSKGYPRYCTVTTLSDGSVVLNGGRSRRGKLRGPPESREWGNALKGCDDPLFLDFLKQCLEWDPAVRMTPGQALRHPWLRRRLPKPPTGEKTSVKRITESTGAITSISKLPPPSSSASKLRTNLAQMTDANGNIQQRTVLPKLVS", "design": "Invitrogen Lantha screen kinase binding, per cent inhibition of binding", "conditions": "10 µM, binder", "procedure": "as §1"}, "[3]": {"molecular_target": "CAMKK2 (Homo sapiens, UniProt Q96RR4)", "sequence (Q96RR4 whole entry)": "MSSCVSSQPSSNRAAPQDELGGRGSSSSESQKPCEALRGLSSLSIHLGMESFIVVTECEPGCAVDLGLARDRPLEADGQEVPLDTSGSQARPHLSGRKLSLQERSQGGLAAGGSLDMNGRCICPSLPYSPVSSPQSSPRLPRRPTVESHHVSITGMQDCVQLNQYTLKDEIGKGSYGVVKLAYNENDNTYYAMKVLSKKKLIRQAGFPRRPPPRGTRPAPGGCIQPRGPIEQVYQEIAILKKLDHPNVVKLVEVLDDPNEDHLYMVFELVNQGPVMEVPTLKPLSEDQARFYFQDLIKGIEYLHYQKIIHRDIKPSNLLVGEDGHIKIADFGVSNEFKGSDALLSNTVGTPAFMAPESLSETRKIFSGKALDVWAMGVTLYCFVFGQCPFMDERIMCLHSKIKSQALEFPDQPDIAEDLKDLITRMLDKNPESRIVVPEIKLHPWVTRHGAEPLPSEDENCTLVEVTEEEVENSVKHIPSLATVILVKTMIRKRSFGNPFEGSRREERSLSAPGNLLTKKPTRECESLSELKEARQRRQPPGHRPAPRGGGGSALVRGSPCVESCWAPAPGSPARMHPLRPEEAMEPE", "design": "Invitrogen Lantha screen kinase binding, per cent inhibition of binding", "conditions": "10 µM, binder", "procedure": "as §1"}, "[4]": {"molecular_target": "MAPK15 (Homo sapiens, UniProt Q8TD08)", "design": "Invitrogen Lantha screen kinase binding, per cent inhibition of binding", "conditions": "10 µM, binder", "procedure": "as §1"}, "[5]": {"molecular_target": "PKN2 (Homo sapiens, UniProt Q16513)", "sequence (Q16513 whole entry)": "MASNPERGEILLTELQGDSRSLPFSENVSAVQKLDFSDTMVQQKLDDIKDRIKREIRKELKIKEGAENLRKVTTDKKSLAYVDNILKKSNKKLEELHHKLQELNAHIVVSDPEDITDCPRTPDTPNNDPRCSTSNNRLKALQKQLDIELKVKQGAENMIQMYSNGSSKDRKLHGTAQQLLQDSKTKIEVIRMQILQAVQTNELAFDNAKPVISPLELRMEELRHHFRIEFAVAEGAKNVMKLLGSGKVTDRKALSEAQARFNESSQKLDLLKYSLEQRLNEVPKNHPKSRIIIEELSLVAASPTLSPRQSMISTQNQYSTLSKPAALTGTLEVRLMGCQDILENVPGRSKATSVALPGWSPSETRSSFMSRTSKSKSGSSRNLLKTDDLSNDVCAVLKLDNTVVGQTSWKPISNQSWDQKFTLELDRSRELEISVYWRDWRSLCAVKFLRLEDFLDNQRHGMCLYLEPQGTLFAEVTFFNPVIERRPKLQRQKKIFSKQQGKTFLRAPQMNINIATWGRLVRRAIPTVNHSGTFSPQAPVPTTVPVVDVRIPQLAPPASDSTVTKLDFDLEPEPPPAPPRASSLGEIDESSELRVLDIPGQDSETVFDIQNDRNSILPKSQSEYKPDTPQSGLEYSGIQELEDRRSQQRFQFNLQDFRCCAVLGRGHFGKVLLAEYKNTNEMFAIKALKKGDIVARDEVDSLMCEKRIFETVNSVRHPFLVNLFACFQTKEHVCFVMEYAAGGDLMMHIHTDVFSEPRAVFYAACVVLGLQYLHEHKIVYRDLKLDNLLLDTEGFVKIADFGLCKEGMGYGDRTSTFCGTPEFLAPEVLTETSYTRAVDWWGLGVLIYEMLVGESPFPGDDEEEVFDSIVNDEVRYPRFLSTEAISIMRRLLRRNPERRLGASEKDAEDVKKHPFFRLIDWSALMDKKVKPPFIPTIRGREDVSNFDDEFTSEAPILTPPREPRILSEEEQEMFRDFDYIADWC", "design": "Invitrogen Lantha screen kinase binding, per cent inhibition of binding", "conditions": "10 µM, binder", "procedure": "as §1"}, "[6]": {"molecular_target": "T2, Protein kinase, AMP-activated, alpha 1 beta 1 gamma 2 complex (Homo sapiens, UniProt Q13131+Q9UGJ0+Q9Y478)", "T2 construct": "gene PRKAA1", "design": "Invitrogen Lantha screen kinase binding, per cent inhibition of binding", "conditions": "10 µM, binder", "procedure": "as §1"}, "[7]": {"molecular_target": "TTK (Homo sapiens, UniProt P33981)", "design": "Invitrogen Lantha screen kinase binding, per cent inhibition of binding", "conditions": "10 µM, binder", "procedure": "as §1"}, "[8]": {"molecular_target": "TGFBR2 (Homo sapiens, UniProt P37173)", "design": "Invitrogen Lantha screen kinase binding, per cent inhibition of binding", "conditions": "10 µM, binder", "procedure": "as §1"}, "[9]": {"molecular_target": "MAP3K11 (Homo sapiens, UniProt Q16584)", "sequence (Q16584 whole entry)": "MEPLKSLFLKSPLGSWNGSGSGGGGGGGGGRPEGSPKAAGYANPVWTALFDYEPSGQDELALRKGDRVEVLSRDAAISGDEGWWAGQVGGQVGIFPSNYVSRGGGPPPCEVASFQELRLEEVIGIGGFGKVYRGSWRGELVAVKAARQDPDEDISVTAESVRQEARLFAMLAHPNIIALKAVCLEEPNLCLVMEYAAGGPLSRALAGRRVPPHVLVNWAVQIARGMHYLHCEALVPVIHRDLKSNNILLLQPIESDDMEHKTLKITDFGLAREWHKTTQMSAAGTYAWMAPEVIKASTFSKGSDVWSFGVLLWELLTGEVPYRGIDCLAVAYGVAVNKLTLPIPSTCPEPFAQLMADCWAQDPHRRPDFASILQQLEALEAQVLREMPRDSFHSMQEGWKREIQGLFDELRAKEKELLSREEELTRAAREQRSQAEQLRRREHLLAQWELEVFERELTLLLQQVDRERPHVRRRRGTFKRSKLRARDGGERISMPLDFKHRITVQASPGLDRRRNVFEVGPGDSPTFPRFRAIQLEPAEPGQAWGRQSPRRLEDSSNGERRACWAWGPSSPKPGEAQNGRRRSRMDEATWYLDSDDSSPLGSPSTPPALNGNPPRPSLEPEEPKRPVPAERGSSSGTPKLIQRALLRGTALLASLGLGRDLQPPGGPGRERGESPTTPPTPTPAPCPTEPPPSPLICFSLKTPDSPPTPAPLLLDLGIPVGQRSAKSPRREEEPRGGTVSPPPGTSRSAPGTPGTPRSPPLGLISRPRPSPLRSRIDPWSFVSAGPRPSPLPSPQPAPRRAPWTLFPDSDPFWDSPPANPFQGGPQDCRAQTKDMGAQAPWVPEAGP", "design": "Invitrogen Lantha screen kinase binding, per cent inhibition of binding", "conditions": "10 µM, binder", "procedure": "as §1"}, "[10]": {"molecular_target": "MKNK2 (Homo sapiens, UniProt Q9HBH9)", "sequence (Q9HBH9 whole entry)": "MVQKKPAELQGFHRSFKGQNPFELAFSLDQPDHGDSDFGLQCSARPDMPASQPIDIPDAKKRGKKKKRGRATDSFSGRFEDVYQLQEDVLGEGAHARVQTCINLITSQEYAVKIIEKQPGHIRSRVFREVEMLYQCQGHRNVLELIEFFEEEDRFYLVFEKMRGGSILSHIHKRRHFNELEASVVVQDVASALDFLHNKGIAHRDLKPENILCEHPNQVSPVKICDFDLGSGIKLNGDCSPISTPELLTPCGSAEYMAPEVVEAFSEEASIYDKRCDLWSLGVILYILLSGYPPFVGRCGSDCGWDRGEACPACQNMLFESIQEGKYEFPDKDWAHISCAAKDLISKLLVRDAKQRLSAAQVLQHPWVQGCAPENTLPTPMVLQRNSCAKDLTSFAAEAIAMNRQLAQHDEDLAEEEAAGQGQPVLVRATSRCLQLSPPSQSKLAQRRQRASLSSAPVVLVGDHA", "design": "Invitrogen Lantha screen kinase binding, per cent inhibition of binding", "conditions": "10 µM, binder", "procedure": "as §1"}, "[11]": {"molecular_target": "TGF-beta activated kinase 1/MAP3K7 binding protein 1 (MAP3K7IP1) (Homo sapiens, UniProt O43318)", "design": "Invitrogen Lantha screen kinase binding, per cent inhibition of binding", "conditions": "10 µM, binder", "procedure": "as §1"}, "[12]": {"molecular_target": "T3, IRAK4 (Homo sapiens, UniProt Q9NWZ3)", "T3 sequence (Q9NWZ3 1-460)": "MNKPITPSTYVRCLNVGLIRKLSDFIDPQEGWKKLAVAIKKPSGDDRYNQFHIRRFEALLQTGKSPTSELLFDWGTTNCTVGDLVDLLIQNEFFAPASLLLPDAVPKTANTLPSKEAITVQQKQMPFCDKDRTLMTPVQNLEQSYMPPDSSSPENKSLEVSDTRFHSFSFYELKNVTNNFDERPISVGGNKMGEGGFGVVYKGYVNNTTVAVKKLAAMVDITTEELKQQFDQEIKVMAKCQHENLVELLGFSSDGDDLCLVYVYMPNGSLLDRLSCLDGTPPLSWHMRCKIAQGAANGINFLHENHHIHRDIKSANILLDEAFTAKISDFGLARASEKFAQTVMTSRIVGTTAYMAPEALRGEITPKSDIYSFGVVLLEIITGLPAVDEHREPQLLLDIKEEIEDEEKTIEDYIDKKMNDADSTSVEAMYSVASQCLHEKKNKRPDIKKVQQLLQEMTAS", "design": "Invitrogen kinase panel, per cent inhibition of kinase activity", "conditions": "10 µM, inhibitor", "procedure": "as §1"}, "[13]": {"molecular_target": "T4, PIM-1 (Homo sapiens, UniProt P11309)", "T4 construct": "gene PIM1", "T4 sequence (P11309 whole entry)": "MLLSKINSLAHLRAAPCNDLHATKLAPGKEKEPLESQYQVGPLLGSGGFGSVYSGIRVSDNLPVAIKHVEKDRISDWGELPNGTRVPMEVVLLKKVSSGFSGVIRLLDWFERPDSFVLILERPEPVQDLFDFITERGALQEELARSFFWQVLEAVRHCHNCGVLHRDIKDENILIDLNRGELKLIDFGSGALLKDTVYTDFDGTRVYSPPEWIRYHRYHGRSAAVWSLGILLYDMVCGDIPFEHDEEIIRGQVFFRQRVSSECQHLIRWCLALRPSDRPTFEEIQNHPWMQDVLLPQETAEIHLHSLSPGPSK", "design": "Invitrogen kinase panel, per cent inhibition of kinase activity", "conditions": "10 µM, inhibitor", "summary_of_the_method": "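These are secondary selectivity data for BDK inhibitors, taken from kinase panels.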"}, "[14]": {"molecular_target": "T5, Corticotrophin Releasing Factor 1 (CRF1) Receptor (Homo sapiens, UniProt P34998)", "T5 construct": "gene CRHR1", "T5 sequence (P34998 1-415)": "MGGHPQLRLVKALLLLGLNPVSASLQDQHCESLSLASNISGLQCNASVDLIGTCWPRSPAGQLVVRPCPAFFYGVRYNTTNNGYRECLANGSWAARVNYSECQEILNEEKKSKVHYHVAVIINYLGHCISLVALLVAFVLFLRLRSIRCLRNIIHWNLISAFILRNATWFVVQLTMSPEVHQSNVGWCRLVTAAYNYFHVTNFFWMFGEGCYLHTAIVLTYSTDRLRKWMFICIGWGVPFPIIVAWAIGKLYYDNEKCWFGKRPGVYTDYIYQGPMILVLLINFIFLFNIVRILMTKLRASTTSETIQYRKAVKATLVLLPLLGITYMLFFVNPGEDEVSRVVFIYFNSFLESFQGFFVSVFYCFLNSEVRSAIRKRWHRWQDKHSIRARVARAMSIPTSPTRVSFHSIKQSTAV", "design": "Cerep Bioprint off-target panel, functional receptor agonism or antagonism", "procedure": "as §1"}, "[15]": {"molecular_target": "T6, Serotonin 5-HT4e (Homo sapiens, UniProt Q13639)", "T6 construct": "gene HTR4; isoform 4e", "T6 sequence (Q13639 whole entry, canonical isoform)": "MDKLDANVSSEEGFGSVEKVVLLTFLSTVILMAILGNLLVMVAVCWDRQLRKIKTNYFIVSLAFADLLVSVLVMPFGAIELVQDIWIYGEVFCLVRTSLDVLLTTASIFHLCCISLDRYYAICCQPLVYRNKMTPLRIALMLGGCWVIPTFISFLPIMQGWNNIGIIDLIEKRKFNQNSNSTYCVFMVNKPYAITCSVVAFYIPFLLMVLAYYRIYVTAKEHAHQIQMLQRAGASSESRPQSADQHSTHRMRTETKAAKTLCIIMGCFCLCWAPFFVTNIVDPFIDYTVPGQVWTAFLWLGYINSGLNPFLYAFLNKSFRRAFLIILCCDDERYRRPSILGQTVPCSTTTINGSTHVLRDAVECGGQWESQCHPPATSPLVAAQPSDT", "design": "Cerep Bioprint off-target panel, functional receptor agonism or antagonism", "conditions": "agonist", "procedure": "as §1"}, "[16]": {"molecular_target": "T7, Kappa Opioid (Homo sapiens, UniProt P41145)", "T7 construct": "gene OPRK1", "T7 sequence (P41145 whole entry)": "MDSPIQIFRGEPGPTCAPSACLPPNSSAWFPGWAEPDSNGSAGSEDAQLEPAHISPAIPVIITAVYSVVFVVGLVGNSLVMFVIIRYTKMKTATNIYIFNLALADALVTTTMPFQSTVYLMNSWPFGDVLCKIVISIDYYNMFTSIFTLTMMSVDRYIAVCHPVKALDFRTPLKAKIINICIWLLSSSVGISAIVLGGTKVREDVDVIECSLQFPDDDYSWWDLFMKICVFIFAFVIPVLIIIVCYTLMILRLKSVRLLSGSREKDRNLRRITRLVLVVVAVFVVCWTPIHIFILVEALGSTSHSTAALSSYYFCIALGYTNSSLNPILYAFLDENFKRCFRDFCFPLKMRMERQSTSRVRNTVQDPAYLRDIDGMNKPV", "design": "Cerep Bioprint off-target panel, functional receptor agonism or antagonism", "conditions": "agonist", "procedure": "as §1"}, "[17]": {"molecular_target": "T8, Endothelin A (Homo sapiens, UniProt P25101)", "T8 construct": "gene EDNRA", "T8 sequence (P25101 whole entry)": "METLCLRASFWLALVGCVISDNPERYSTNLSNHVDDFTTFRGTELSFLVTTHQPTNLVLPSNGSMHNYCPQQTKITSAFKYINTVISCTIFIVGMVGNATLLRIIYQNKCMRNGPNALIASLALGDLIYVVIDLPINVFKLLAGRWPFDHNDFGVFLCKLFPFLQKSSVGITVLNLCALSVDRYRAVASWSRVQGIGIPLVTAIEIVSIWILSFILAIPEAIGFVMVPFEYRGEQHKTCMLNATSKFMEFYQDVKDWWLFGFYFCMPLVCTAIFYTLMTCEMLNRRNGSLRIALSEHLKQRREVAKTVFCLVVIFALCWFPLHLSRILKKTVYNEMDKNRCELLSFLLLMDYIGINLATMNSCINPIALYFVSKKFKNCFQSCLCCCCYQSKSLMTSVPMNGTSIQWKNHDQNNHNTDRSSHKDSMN", "design": "Cerep Bioprint off-target panel, functional receptor agonism or antagonism", "conditions": "agonist", "procedure": "as §1"}, "[18]": {"molecular_target": "T9, Adenosine A2a Receptor (Homo sapiens, UniProt P29274)", "T9 construct": "gene ADORA2A", "design": "Cerep Bioprint off-target panel, functional receptor agonism or antagonism", "conditions": "agonist", "procedure": "as §1"}, "[19]": {"molecular_target": "T10, Vasopressin 1a (Homo sapiens, UniProt P37288)", "T10 construct": "gene AVPR1A", "design": "Cerep Bioprint off-target panel, functional receptor agonism or antagonism", "conditions": "agonist", "procedure": "as §1"}}, "data": [{"smiles": "O=C(O)c1sc2cc(F)sc2c1Cl", "note": "[PF-07208254, 3-chloro-5-fluorothieno[3,2-b]thiophene-2-carboxylic acid]", "values": [{"measurement": "Lantha Binding % Inhibition PF-07208254", "setting": "[1]", "result": 3.3, "unit": "%"}, {"measurement": "Lantha Binding % Inhibition PF-07208254", "setting": "[2]", "result": 29.2, "unit": "%"}, {"measurement": "Lantha Binding % Inhibition PF-07208254", "setting": "[3]", "result": 7.8, "unit": "%"}, {"measurement": "Lantha Binding % Inhibition PF-07208254", "setting": "[4]", "result": 18.3, "unit": "%"}, {"measurement": "Lantha Binding % Inhibition PF-07208254", "setting": "[5]", "result": 8.1, "unit": "%"}, {"measurement": "Lantha Binding % Inhibition PF-07208254", "setting": "[6]", "result": 5.9, "unit": "%"}, {"measurement": "Lantha Binding % Inhibition PF-07208254", "setting": "[7]", "result": 16.2, "unit": "%"}, {"measurement": "Lantha Binding % Inhibition PF-07208254", "setting": "[8]", "result": 15.9, "unit": "%"}, {"measurement": "Lantha Binding % Inhibition PF-07208254", "setting": "[9]", "result": 6.8, "unit": "%"}, {"measurement": "Lantha Binding % Inhibition PF-07208254", "setting": "[10]", "result": 11.8, "unit": "%"}, {"measurement": "Lantha Binding % Inhibition PF-07208254", "setting": "[11]", "result": 2.6, "unit": "%"}, {"measurement": "ATP = 1 mM % Inhibition PF-07208254", "setting": "[12]", "result": -2.1, "unit": "%"}, {"measurement": "ATP = Km % Inhibition PF-07208254", "setting": "[12]", "result": 6.2, "unit": "%"}, {"measurement": "ATP = Km % Inhibition PF-07208254", "setting": "[13]", "result": 44.5, "unit": "%"}, {"measurement": "% (agonism) PF-07208254", "setting": "[14]; 100 µM, agonist", "result": -2, "unit": "%"}, {"measurement": "% Inhibition (antagonism) PF-07208254", "setting": "[14]; 100 µM, antagonist", "result": 39, "unit": "%"}, {"measurement": "% (agonism) PF-07208254", "setting": "[15]; 100 µM", "result": 6, "unit": "%"}, {"measurement": "% (agonism) PF-07208254", "setting": "[16]; 100 µM", "result": -3, "unit": "%"}, {"measurement": "% (agonism) PF-07208254", "setting": "[17]; 100 µM", "result": 4, "unit": "%"}, {"measurement": "% (agonism) PF-07208254", "setting": "[18]; 100 µM", "result": 0, "unit": "%"}, {"measurement": "% (agonism) PF-07208254", "setting": "[19]; 100 µM", "result": 16, "unit": "%"}]}, {"smiles": "CCC1(COc2ccc(-c3csc(-c4ccccc4C(=O)O)n3)cn2)CC1", "note": "[PF-07247685, 2-(4-{6-[(1-ethylcyclopropyl)methoxy]pyridin-3-yl}-1,3-thiazol-2-yl)benzoic acid]", "values": [{"measurement": "Lantha Binding % Inhibition PF-07247685", "setting": "[1]", "result": 1.3, "unit": "%"}, {"measurement": "Lantha Binding % Inhibition PF-07247685", "setting": "[2]", "result": 1.9, "unit": "%"}, {"measurement": "Lantha Binding % Inhibition PF-07247685", "setting": "[3]", "result": 1.8, "unit": "%"}, {"measurement": "Lantha Binding % Inhibition PF-07247685", "setting": "[4]", "result": 2.4, "unit": "%"}, {"measurement": "Lantha Binding % Inhibition PF-07247685", "setting": "[5]", "result": -1.7, "unit": "%"}, {"measurement": "Lantha Binding % Inhibition PF-07247685", "setting": "[6]", "result": 0.5, "unit": "%"}, {"measurement": "Lantha Binding % Inhibition PF-07247685", "setting": "[7]", "result": 3.6, "unit": "%"}, {"measurement": "Lantha Binding % Inhibition PF-07247685", "setting": "[8]", "result": 15.1, "unit": "%"}, {"measurement": "Lantha Binding % Inhibition PF-07247685", "setting": "[9]", "result": -2.2, "unit": "%"}, {"measurement": "Lantha Binding % Inhibition PF-07247685", "setting": "[10]", "result": 1.2, "unit": "%"}, {"measurement": "Lantha Binding % Inhibition PF-07247685", "setting": "[11]", "result": -1.9, "unit": "%"}, {"measurement": "ATP = 1 mM % Inhibition PF-07247685", "setting": "[12]", "result": 2.9, "unit": "%"}, {"measurement": "ATP = Km % Inhibition PF-07247685", "setting": "[12]", "result": -0.9, "unit": "%"}, {"measurement": "ATP = Km % Inhibition PF-07247685", "setting": "[13]", "result": -2.6, "unit": "%"}, {"measurement": "% (agonism) PF-07247685", "setting": "[14]; 10 µM, agonist", "result": 4, "unit": "%"}, {"measurement": "% Inhibition (antagonism) PF-07247685", "setting": "[14]; 10 µM, antagonist", "result": 11, "unit": "%"}, {"measurement": "% (agonism) PF-07247685", "setting": "[15]; 10 µM", "result": 0, "unit": "%"}, {"measurement": "% (agonism) PF-07247685", "setting": "[16]; 10 µM", "result": -7, "unit": "%"}, {"measurement": "% (agonism) PF-07247685", "setting": "[17]; 10 µM", "result": -4, "unit": "%"}, {"measurement": "% (agonism) PF-07247685", "setting": "[18]; 10 µM", "result": 1, "unit": "%"}, {"measurement": "% (agonism) PF-07247685", "setting": "[19]; 10 µM", "result": -1, "unit": "%"}]}]}
